Patent US20250313530A1, “SMALL MOLECULE INHIBITORS OF INTERLEUKIN-4 AND USES THEREOF” (Trustees of Boston University, priority 2024, published 2025)
Values joined by “and” are separate entries in the source; they are usually repeats but may differ in a detail not shown here. Identical values can stand only once. “Also recorded” adds a separate entry of the source. Like-named read-outs stand apart in the source and are kept apart here. One block for each compound: values may come before it.

Experiments:
IL-4 [1] = molecular target: T1, IL-4 (Homo sapiens, UniProt P05112); assay: HEK-Blue IL-4/IL-13 reporter assay, IL-4 inhibition; format: cell-based; details: for inhibition at 10 µM: HEK-Blue; for inhibition at 10 µM / % Inhibition: IL-4, HEK Blue IL-4/IL-13 reporter assay, 10 μM; for EC50: dose response, IL-4 inhibition; for Hill coefficient: fit of dose response in HEK Blue IL-4/IL-13 reporter assay
T1 construct: purchased Acros Biosystems IL4-H4218; host or cells: HEK-293
T1 sequence (P05112 25-153): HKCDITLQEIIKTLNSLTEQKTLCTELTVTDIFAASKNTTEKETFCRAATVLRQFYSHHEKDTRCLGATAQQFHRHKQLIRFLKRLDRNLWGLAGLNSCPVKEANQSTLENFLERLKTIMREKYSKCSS
Procedure: HEK-Blue IL-4/IL-13 Inhibition assay. HEK-Blue IL-4/IL-13 reporter cell lines were purchased from Invivogen and cultured in DMEM with 10% Heat Inactivated Fetal Bovine Serum (FBS), 100 U/ml-100 μg/ml Pen-Strep, 10 μg/ml blasticidin, 100 μg/ml Normocin and 100 μg/ml Zeocin. Cells were tested for secreted embryonic alkaline phosphatase (SEAP) production induced by IL-4 alone prior to small molecule screening.
22.5 μl of small molecule in DMEM 4% DMSO was added to 22.5 μl of 1 ng/ml IL-4 in DMEM in a non-binding 96-well reaction plate for 30 minutes at room temperature. The reaction plate was further incubated for 30-60 min at 37° C. HEK-Blue IL-4/IL-13 reporter cell line was used between passages 11-17. […] Measurements were done in triplicate. The plate was incubated for ˜22-24 hours at 37° C./5% CO2. Quanti-Blue dye was prepared as per the manufacturer's recommendation and 160 μl was dispensed in each well of a 96-well plate (avoid edges to avoid evaporation), 40 μl of cell supernatant was added to the same plate and incubated for 3 hours at 37° C./5% CO2. Optical density was then measured at 650 nm using Molecular Devices SpectraMax M5 Microplate reader. Data was analyzed and plotted using GraphPad Prism 9.2.0.

[2] = Mouse hepatic microsome stability; format: in vitro ADME; details: mouse hepatic microsomes
Human plasma stability = format: in vitro ADME
B16-F10 cells = assay: In vitro cytotoxicity (CellTiter-Glo); format: cell-based; details: up to 25 μM
Procedure: CellTiter-Glo 2.0 purchased from Promega G9242) was used to measure cell viability with the Victor-3 plate reader (PerkinElmer) after 24 hours in concentrations of compound up to 25 μM. Vehicle was used as a negative control for both cytotoxicity and growth inhibition, methanol was used as a positive control for cytotoxicity, and 1% FBS was used as a positive control for growth inhibition.

[3] = PAMPA membrane permeability; format: in vitro ADME; details: 18 hours incubation
Procedure: PVDF membranes purchased from Bioassay Systems PAMPA-096 were coated with 5 μL of 4% Phosphatidylcholine (Lecithin, MP Biomedicals 0210214780) in dodecane. […] Permeability was calculated by Pv=C×ln (1−ODA/ODE) cm/s, where ODA is the absorbance of acceptor solution minus blank, and ODE the absorbance of the equilibrium standard minus blank, and C=7.72×10^−6 using an 18-hour incubation time.

[4] = test system: IL-4 induced STAT-6 phosphorylation in THP-1 monocytes (type II IL-4 receptor); assay: THP-1 STAT-6 phosphorylation assay (western blot); format: cell-based
Procedure: THP-1 cells were received as a gift from the laboratory of Dr. Mark Grinstaff and maintained in RMPI-1640 with […] heat-inactivated Fetal Bovine Serum and 50 μM beta-mercaptoethanol. Cells used for assays were between passages 6 and 10, 10 ng/mL IL-4 was preincubated with experimental sample (vehicle or analogs) for 30 minutes at 37° C. 1 mL of each solution was then added to a pellet of 2 E6 THP-1 cells and pipetted up and down. THP-1 cells were incubated for 30 minutes in the incubator at 37 C/5% CO2. Cells were then spun down and lysed with 200 μL ice-cold RIPA buffer complete with phosphatase and protease inhibitors. Cell lysates were incubated on ice for 30 minutes, spun down and the supernatants were stored at −20° C. until western blot analysis. Undiluted cell lysates were run on SDS-PAGE and transferred to Immunoblot PVDF membrane using Biorad equipment. Membranes were incubated with 1:1000 primary antibody overnight at 4° C. Membranes were then incubated with 1:50,000 dilution secondary for 1 hour at room temperature. Membranes were then exposed to Femto ECL for 5 minutes and imaged using a Bio-Rad Gel Doc. The brightness/contrast was adjusted in FIJI and the area under the curve of each lane was quantified. The phosphorylated STAT-6 to STAT-6 ratio was calculated and normalized to the amount of total STAT-6. The data was plotted and analyzed using GraphPad Prism 9.2.0′.

[5] = test system: IL-4 induced STAT-6 phosphorylation in Ramos B lymphocytes (type I IL-4 receptor); assay: Ramos STAT-6 phosphorylation assay (western blot); format: cell-based; details: for inhibition at 0.5 µM: read-out: percent inhibition of STAT-6 phosphorylation; for inhibition of phosphorylation of STAT-6: 50 nM
Procedure: Ramos cells were purchased from ATCC and maintained in RMPI-1640 with 10% heat-inactivated Fetal Bovine Serum. Cells used for assays were between passages 4 and 8. […] Undiluted cell lysates were run SDS-PAGE and transferred to Immunoblot PVDF membrane using Biorad equipment. Membranes were incubated with 1:1000 primary antibody overnight at 4° C. Membranes were then incubated with 1:50,000 dilution secondary for 1 hour at room temperature. Membranes were then exposed to Femto ECL for 5 minutes and imaged using a Bio-Rad Gel Doc. The brightness/contrast was adjusted in FIJI and the area under the curve of each lane was quantified. The phosphorylated STAT-6 to STAT-6 ratio was calculated and normalized to the amount of total STAT-6. The data was plotted and analyzed using GraphPad Prism 9.2.0.

IL-4 [6] = molecular target: T1, IL-4; assay: HEK-Blue IL-4/IL-13 reporter assay, IL-4 inhibition; format: cell-based; details: control: cells with 10 μM compound only, no IL-4
Mouse plasma stability = format: in vitro ADME
soluble IL-4 = molecular target: T2, soluble IL-4 (Homo sapiens, UniProt P05112); assay: Differential scanning fluorimetry (thermal shift), IL-4; format: binding; details: soluble IL-4, 2 μM compound, 0.1% DMSO; read-out: Tm shift
T2 sequence (P05112 25-153): T1 sequence (P05112 25-153)
Procedure: DSF was performed using BioRad CFX384.

[7] = test system: IL-4 induced pSTAT-6 in THP-1 cells; assay: THP-1 pSTAT-6 immunofluorescence
Procedure: IL-4 and analogs or vehicle (DMEM with 2% DMSO) were preincubated for 2 hours at 37° C. After the incubation, IL-4 or IL-4/analogs were incubated with THP-1 cells for 30 min at 37° C./5% CO2. Incubated cells were centrifuged for 5 min at 250×g. After aspirating the supernatant, cells were resuspended in 1×PBS and plated into a MatTek dish coated with Cell Tak adhesive for 30 minutes at room temperature. Cells were fixed with 4% Paraformaldehyde for 1 hour at room temperature. Cells were rinsed twice with 1×PBS and then permeabilized with 0.5% Triton-X for 1 hour at room temperature. Cells were rinsed again with 1×PBS, and blocked for an hour in superblock with 0.05% Tween-20, rinsed twice, and then incubated with anti-pSTAT-6 1:100 diluted in superblock 0.05% Tween-20 overnight at 4° C. (parafilmed to avoid evaporation). Cells were rinsed thrice with 1×PBS and then incubated with Mouse anti-rabbit IgG(H+L) Secondary Antibody-Alexa Fluor 647 for 1 hour at room temperature in the dark. […] Cells were rinsed twice with 1×PBS and left in 1 ml of 1×PBS. Confocal Imaging was done using an Olympus FV10i and images were processed using FIJI.

IL-13 [8] = molecular target: T3, IL-13 (Homo sapiens, UniProt P35225); assay: HEK-Blue IL-4/IL-13 reporter assay, IL-13 inhibition; format: cell-based
Procedure: Prior to screening. […] The solution was added to preincubated cells in a 96-well culture plate. The supernatant was then incubated with Quanti-Blue dye for 3 hours and absorbance was measured at 650 nm. Data was analyzed and plotted using GraphPad Prism 9.2.0.

[9] = test system: murine IL-4 induced STAT-6 phosphorylation in RAW 264.7 macrophages; assay: RAW 264.7 STAT-6 phosphorylation assay (western blot); format: cell-based
Procedure: RAW 264.7 cells were purchased from ATCC and maintained in DMEM with 10% heat-inactivated Fetal Bovine Serum. Cells used for assays were between passages 3 and 5. […] The undiluted cell lysates were run SDS-PAGE followed by transfer to Immunoblot PVDF membrane using Biorad equipment. Membranes were incubated with 1:1000 primary antibody overnight at 4° C. Membranes were then incubated with 1:50,000 dilution secondary for 1 hour at room temperature. Membranes were then exposed to Femto ECL for 5 minutes and imaged using a Bio-Rad Gel Doc. The brightness/contrast was adjusted in FIJI and the area under the curve of each lane was quantified. The phosphorylated STAT-6 to STAT-6 ratio was calculated and normalized to the amount of total STAT-6. The data was plotted and analyzed using GraphPad Prism 8.

IL-13 [10] = molecular target: T3, IL-13; details: previously reported; cited from earlier work
[11] = molecular target: IL-4 induced STAT-6 phosphorylation in THP-1 monocytes (type II IL-4 receptor); details: previously reported, read-out: EC50 of inhibition of STAT-6 phosphorylation; cited from earlier work
[12] = HEK Blue IL-4/IL-13 reporter assay, read-out: EC50

T3 sequence (P35225 25-146): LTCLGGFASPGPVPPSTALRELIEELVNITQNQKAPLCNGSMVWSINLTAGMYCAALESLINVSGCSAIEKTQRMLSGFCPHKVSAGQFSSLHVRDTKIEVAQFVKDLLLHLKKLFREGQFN

inhibition at 10 µM (IL-4 [1]; read-out: % Inhibition): 86.1% | Mouse hepatic microsome stability (% remaining after 1 hour) [2]: 68.3%
SMILES: N#Cc1c(-c2ccc(O)c(O)c2)cc(C23CC(C2)C3)nc1N [1A/54, 6-(bicyclo[1.1.1]pentan-1-yl)-4-(3,4-dihydroxyphenyl)-2-imino-2,3-dihydropyridine-3-carbonitrile]

SMILES: N#Cc1c(-c2ccc(O)c(O)c2)cc(-c2ccc(N)cc2)[nH]c1=N [Compound 14, 6-(4-aminophenyl)-4-(3,4-dihydroxyphenyl)-2-imino-1,2-dihydropyridine-3-carbonitrile]
Human plasma stability (% remaining after 3 hours) (Human plasma stability; listed as Analog 14): >99%/>99% | Cytotoxicity in B16-F10 cells (24 hours) (B16-F10 cells): no toxicity | Cytotoxicity in B16-F10 cells (24 hours) (B16-F10 cells; listed as Analog 14): n.s. < 25 μM | % Inhibition (IL-4 [1]): 94.5% and 94.5 ± 1.58% and 94.5 ± 1.68% | inhibition at 10 µM (IL-4 [1]): > 80% | EC50 (IL-4 [1]; [12]): 0.67 ± 0.28 µM | EC50 (IL-4 [1]; values in text, read-out: potency (EC50 of inhibition)): 0.627 µM | Hill coefficient (IL-4 [1]): 1.69±0.25 | Papp at 18 h, 100 μM [3]: 6.2 ×10⁻⁶ cm/s | EC50 ([4]; Homo sapiens, THP-1 monocytes, western blot, normalized to STAT-6, read-out: EC50 of inhibition of STAT-6 phosphorylation): 0.686 µM | STAT-6 levels ([4]; total STAT-6, THP-1 cells): not impacted | inhibition at 0.5 µM ([5]; Homo sapiens, Ramos): 31.4% | inhibition of phosphorylation of STAT-6 ([5]; Ramos B lymphocytes): minimum inhibition | Abs650 (IL-4 [6]): 0.05948 ± 0.000642 | Mouse plasma stability (% remaining after 3 hours) (Mouse plasma stability): > 99% | Mouse plasma stability (% remaining after 3 hours) (Mouse plasma stability; listed as Analog 14): >99%/>99% | ΔTm at 2 µM (soluble IL-4): 1.66 °C | Mouse hepatic microsome stability (% remaining after 1 hour) [2]: 75.4% | Mouse hepatic microsome stability (% remaining after 1 hour) ([2]; listed as Analog 14): 75.4% | STAT-6 phosphorylation by immunofluorescence ([7]; 500 nM): significant reduction in STAT-6 phosphorylation | STAT-6 phosphorylation by immunofluorescence ([7]; 5 μM): almost no visible STAT-6 phosphorylation | fold less potent for IL-13 than for IL-4 (IL-13 [8]; IL-13 EC50 versus IL-4 EC50): 100 fold | EC50 (IL-13 [8]; soluble IL-13 mediated signaling, HEK Blue IL-4/IL-13 reporter assay): 18.2 µM

SMILES: N#Cc1c(-c2cccnc2)cc(-c2ccc(F)cc2)[nH]c1=N [Compound 50, 6′-(4-fluorophenyl)-2′-imino-1′,2′-dihydro-[3,4′-bipyridine]-3′-carbonitrile]
inhibition at 10 µM (IL-4 [1]): 10 ± 17.2%

inhibition at 10 µM (IL-4 [1]; read-out: % Inhibition): 54.6 ± 11.6%
SMILES: N#Cc1c(-c2ccc(O)c(C(=O)O)c2)cc(-c2ccc(F)cc2)[nH]c1=N [Compound 51, 5-(3-cyano-6-(4-fluorophenyl)-2-imino-1,2-dihydropyridin-4-yl)-2-hydroxybenzoic acid]

SMILES: N#Cc1c(-c2ccc(O)c(Br)c2)cc(-c2ccc(F)cc2)[nH]c1=N [Compound 52, 4-(3-bromo-4-hydroxyphenyl)-6(4-fluorophenyl)-2-imino-1,2-dihydropyridine-3-carbonitrile]
inhibition at 10 µM (IL-4 [1]): 58.8 ± 16.5%

SMILES: N#Cc1c(-c2ccc(O)c(I)c2)cc(-c2ccc(F)cc2)[nH]c1=N [Compound 53, 6(4-fluorophenyl)-4-(4-hydroxy-3-iodophenyl)-2-imino-1,2-dihydropyridine-3-carbonitrile]
inhibition at 10 µM (IL-4 [1]): 58.9 ± 19.9%

Human plasma stability (% remaining after 3 hours) (Human plasma stability): > 99% | % Inhibition (IL-4 [1]): 97.6 ± 1.57% | inhibition at 10 µM (IL-4 [1]; read-out: % Inhibition): > 97% | EC50 (IL-4 [1]; [12]): 1.32 ± 0.38 µM | Hill coefficient (IL-4 [1]): 1.24±0.08 | EC50 ([9]; Mus musculus, RAW264.7, RAW 264.7 macrophages, murine IL-4, read-out: EC50 of reduction in pSTAT-6 levels): 1.28 µM | Papp at 18 h, 100 μM [3]: 16.4 ×10⁻⁶ cm/s | EC50 ([5]; Homo sapiens, Ramos B lymphocytes, western blot, read-out: EC50 of inhibition of STAT-6 phosphorylation): 1.03 µM | Mouse plasma stability (% remaining after 3 hours) (Mouse plasma stability): 97% | Mouse hepatic microsome stability (% remaining after 1 hour) [2]: 86.5%
SMILES: N#Cc1c(-c2ccc(O)c(O)c2)cc(-c2ccc(F)cc2)nc1N [Nico-52, 4-(3,4-dihydroxyphenyl)-6-(4fluorophenyl)-2-imino-1,2-dihydropyridine-3-carbonitrile, reference compound]
Cytotoxicity in B16-F10 cells (24 hours) (B16-F10 cells): no toxicity; also recorded: n.s. < 25 μM | STAT-6 levels ([9]; total STAT-6, RAW 264.7): not affected | inhibition at 0.5 µM ([5]; Homo sapiens, Ramos B lymphocytes, 500 nM): 14.6% | inhibition of phosphorylation of STAT-6 ([5]; Ramos B lymphocytes): minimum inhibition | fold higher inhibition for IL-4 activity than IL-13 activity (IL-13 [10]): 10 fold | EC50 [11]: 3.1 µM
